From ChEMBL document CHEMBL4706667, “Click synthesis of 1,2,3-triazole based imidazoles: Antitubercular evaluation, molecular docking and HSA binding studies” (Bioorg Med Chem Lett, 2021)
In brackets after ≈: the same amount, converted by molar mass.

How the values were obtained:
Vero = experiment: Cytotoxicity against African green monkey Vero cells assessed as reduction in cell viability measured after 72 hrs by MTT assay; format: cell-based; conditions: Chlorocebus sabaeus
[1] = test system: Mycobacterium tuberculosis; experiment: Antitubercular activity against Mycobacterium tuberculosis H37Rv assessed as bacterial growth inhibition incubated for 28 days by agar dilution method; format: functional; conditions: 672 h, time 28 day
Albumin [2] = target: T1, Albumin (Homo sapiens, UniProt P02768); experiment: Binding affinity to human serum albumin assessed as Stem-Volmer quenching constant; format: ADME; conditions: isolated protein
T1 sequence (P02768 whole entry): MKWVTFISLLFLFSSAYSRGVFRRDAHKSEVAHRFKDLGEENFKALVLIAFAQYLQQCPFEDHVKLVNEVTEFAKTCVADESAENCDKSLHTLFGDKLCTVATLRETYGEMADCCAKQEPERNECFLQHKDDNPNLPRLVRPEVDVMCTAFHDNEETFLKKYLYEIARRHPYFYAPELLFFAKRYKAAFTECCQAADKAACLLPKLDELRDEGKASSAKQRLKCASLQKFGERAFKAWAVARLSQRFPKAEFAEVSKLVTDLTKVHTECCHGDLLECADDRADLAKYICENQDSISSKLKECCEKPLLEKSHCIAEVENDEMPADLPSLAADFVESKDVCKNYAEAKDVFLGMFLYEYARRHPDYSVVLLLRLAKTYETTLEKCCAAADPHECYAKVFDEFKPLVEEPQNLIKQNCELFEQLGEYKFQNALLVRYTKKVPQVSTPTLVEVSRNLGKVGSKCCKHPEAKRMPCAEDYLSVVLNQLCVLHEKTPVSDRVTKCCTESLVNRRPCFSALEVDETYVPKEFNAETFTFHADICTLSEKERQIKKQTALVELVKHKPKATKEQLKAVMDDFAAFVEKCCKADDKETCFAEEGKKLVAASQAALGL

Albumin [3] = target: T1, Albumin; experiment: Binding affinity to human serum albumin at protein to compound molar ratio of 1:1 by fluorescence spectroscopy; format: ADME; conditions: isolated protein
Albumin [4] = target: T1, Albumin; experiment: Binding affinity to human serum albumin assessed as critical distance with 50% energy transfer between protein and compound by FRET assay; format: ADME; conditions: isolated protein
Albumin [5] = target: T1, Albumin; experiment: Binding affinity to human serum albumin assessed as binding constant; format: ADME; conditions: isolated protein
Albumin [6] = target: T1, Albumin; experiment: Binding affinity to human serum albumin assessed as distance between the acceptor and donor by FRET assay; format: ADME; conditions: isolated protein
Albumin [7] = target: T1, Albumin; experiment: Binding affinity to human serum albumin assessed as quenching of intrinsic fluorescence at 2.5 to 15 uM and 298 K by fluorescence spectroscopy; format: ADME; conditions: isolated protein, dose 2.5-15 µM
Albumin [8] = target: T1, Albumin; experiment: Binding affinity to human serum albumin assessed as quenching constant; format: ADME; conditions: isolated protein

Work on Cc1ccc(-n2cc(CNC(=O)c3c[nH]c(-c4ccccc4)n3)nn2)cc1 yielded an IC50 (Vero) of 409 µM and an MIC [1] of 19.5 µM (≈ 6.97 µg/mL).

In the case of NC(=O)c1ccc(-n2cc(CNC(=O)c3c[nH]c(-c4ccccc4)n3)nn2)cc1, the KSV (Albumin [2]) is reported as 5.02 10^4L/mol, the Activity (Albumin [3]) is reported as “Active” and the Activity (Albumin [4]) is reported as 1.49 nm. For the same compound, the Kb (Albumin [5]) was 2.58 10^3L/mol, the Activity (Albumin [6]) was 2.09 nm and the Activity (Albumin [7]) was “Active”. The IC50 (Vero) was 198 µM, the Kq (Albumin [8]) was 8.36 10^12L/mol/s and the MIC [1] was 1.47 µM (≈ 0.569 µg/mL).

Compound O=C(NCc1cn(-c2ccc(O)cc2)nn1)c1c[nH]c(-c2ccccc2)n1 has an IC50 (Vero) of 281 µM and an MIC [1] of 5.19 µM (≈ 1.87 µg/mL).

In the case of NNC(=O)c1ccncc1 [ISONIAZID], the IC50 (Vero) is reported as over 456 µM and the MIC [1] is reported as 0.36 µM (≈ 0.0494 µg/mL).

Work on COc1ccc(-n2cc(CNC(=O)c3c[nH]c(-c4ccccc4)n3)nn2)cc1 yielded an IC50 (Vero) of 388 µM and an MIC [1] of 10.6 µM (≈ 3.98 µg/mL).

For Nc1ccc(-n2cc(CNC(=O)c3c[nH]c(-c4ccccc4)n3)nn2)cc1, the KSV (Albumin [2]) was 4.38 10^4L/mol, the Activity (Albumin [3]) was “Active” and the Activity (Albumin [4]) was 1.81 nm. The Kb (Albumin [5]) was 2.16 10^3L/mol, the Activity (Albumin [6]) was 2.36 nm and the Activity (Albumin [7]) was “Active”. The IC50 (Vero) was 237 µM, the Kq (Albumin [8]) was 8.11 10^12L/mol/s and the MIC [1] was 2.03 µM (≈ 0.73 µg/mL).
